Results: EP4159213A1, “PHARMACEUTICAL COMPOSITIONS FOR USE IN PREVENTION AND/OR TREATMENT AND/OR CURE OF HEPATITIS B VIRUS” (Katholieke Universiteit Leuven, priority 2021, dated 2023)
Like-named read-outs stand apart in the source and are kept apart here.

Legend:
Type in all cases: cell-based
[1] = target: T1, human NTCP (Homo sapiens, UniProt Q14973); experiment: Inhibition of tauro-nor-THCA-24-DBD uptake in NTCP-transfected CHO cells; design: expressed in transfected cells; host or cells: CHO cells, geneticin selection, expression induced with sodium butyrate; details: for Ki / concentration-dependent inhibition of tauro-nor-THCA-24-DBD uptake: 3 µM tauro-nor-THCA-24-DBD; for Ki: read-out: Ki; for Uptake of tauro-nor-THCA-24-DBD (% of control): compound at equimolar concentration with 3 µM tauro-nor-THCA-24-DBD, triplicate; for concentration-dependent inhibition of tauro-nor-THCA-24-DBD uptake: multiple inhibitor concentrations
T1 sequence (Q14973 1-349): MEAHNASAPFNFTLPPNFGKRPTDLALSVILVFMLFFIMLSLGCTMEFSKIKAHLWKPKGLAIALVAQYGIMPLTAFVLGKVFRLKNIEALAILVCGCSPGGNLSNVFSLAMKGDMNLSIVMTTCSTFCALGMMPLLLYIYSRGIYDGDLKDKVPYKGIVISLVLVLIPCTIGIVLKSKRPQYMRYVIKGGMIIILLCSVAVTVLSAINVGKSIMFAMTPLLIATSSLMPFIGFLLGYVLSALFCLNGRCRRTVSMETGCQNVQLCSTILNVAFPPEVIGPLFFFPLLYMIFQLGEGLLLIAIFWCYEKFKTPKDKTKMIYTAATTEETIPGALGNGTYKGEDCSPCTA
Experimental: (§1) The cells were placed in an incubator at 37 °C and 5% CO2. The culture medium consisted of DMEM with 1 g·L^-1 glucose and 25 mM HEPES, supplemented with 10% FBS, 0.05 mg·mL^-1 L-proline, 100 IU·mL^-1 penicillin, 100 […], 2 mM glutamine, 0.11 mg·mL^-1 sodium pyruvate. To ensure selection of NTCP-transfected cells, 0.5 mg·mL^-1 geneticin was added to the medium of the transfected cells. Cells were seeded in black 96-well plates with transparent bottom at a density of 6000 cells·well^-1 and 4000 cells·well^-1 for wild-type and transfected cells, respectively. The medium was replaced every other day and 5 mM sodium butyrate was added to induce protein expression at least 36 h before the start of the experiments. Experiments were performed on day 4 or 5 after seeding when confluence was reached.
Furthermore, to analyse the uptake experiments in NTCP-transfected CHO cells, cells were rinsed twice with 200 µL-well^-1 uptake buffer (HBSS containing 10 mM HEPES, pH 7.4) at 37 °C and subsequently preincubated with 100 µL uptake buffer for 15 minutes. For inhibition experiments, compounds were added at double concentration during preincubation. Uptake was initiated by adding 100 µL double-concentrated tauro-nor-THCA-24-DBD solution in uptake buffer. Cells were incubated for 15 minutes. The reaction was quenched by aspirating the incubation mixture and washing four times with ice cold uptake buffer. The cells were lysed with 100 µL 0.5% Triton X-100 in PBS and placed on a plate shaker (300 rpm) at room temperature for 30 minutes. Uptake of tauro-nor-THCA-24-DBD was determined using fluorescence spectroscopy (excitation 440 nm, emission 580 nm) using a Tecan Infinite 200 plate reader (Tecan Benelux, Mechelen, Belgium). Protein content of each well was determined with the BCA Protein assay (Thermo Fisher Scientific, Waltham, MA) performed according to the manufacturer's protocol. Uptake kinetics of tauro-nor-THCA-24-DBD were determined by incubating eight different concentrations in the absence of any compound. […] All conditions were tested in triplicate.
Uptake of tauro-nor-THCA-24-DBD in presence of compounds was expressed to uptake of the control for each batch, i.e. when no compound was present.
For determination of the IC50, the uptake in presence of various concentrations of inhibitor was fitted to the sigmoid Emax model: E = Emax −(Emax−E0) × (([I])^n)/(([I])^n + IC50^n) [formula] with E the uptake of tauro-nor-THCA-24-DBD, E0 the uptake at maximal inhibition by the compound, Emax the uptake at minimal inhibition, IC50 the concentration of the inhibitor at half maximal inhibition, n the Hill coefficient and [I] the concentration of the inhibitor. All curves were fitted with nonlinear least squares regression using R version 3.5.1.
Assuming competitive inhibition, the Cheng-Prusoff equation was used to determine the Ki value: Ki = (IC50)/(1 + ([S])/(Km)) [formula] where Ki is the binding affinity of the inhibitor, IC50 the concentration of the inhibitor at half maximal inhibition, [S] the substrate concentration, and Km the Michaelis-Menten constant of the substrate.

[2] = target: T1, human NTCP; experiment: as above; design: expressed in transfected cells; host or cells: CHO cells, geneticin-selected, expression induced with sodium butyrate
Experimental: as §1, with “The medium was replaced every other day and 5 mM sodium butyrate was added to induce protein expression at least 36 h before the start of the experiments. Experiments were performed on day 4 or 5 after seeding when confluence was reached.” left out
(§2) Furthermore, to analyse the uptake experiments in NTCP-transfected CHO cells, cells were rinsed twice with 200 µL-well^-1 uptake buffer (HBSS containing 10 mM HEPES, pH 7.4) at 37 °C and subsequently preincubated with 100 µL uptake buffer for 15 minutes. […] Uptake of tauro-nor-THCA-24-DBD was determined using fluorescence spectroscopy (excitation 440 nm, emission 580 nm) using a Tecan Infinite 200 plate reader (Tecan Benelux, Mechelen, Belgium). Protein content of each well was determined with the BCA Protein assay (Thermo Fisher Scientific, Waltham, MA) performed according to the manufacturer's protocol. Uptake kinetics of tauro-nor-THCA-24-DBD were determined by incubating eight different concentrations in the absence of any compound. […]

[3] = target: T1, human NTCP; experiment: Uptake kinetics of tauro-nor-THCA-24-DBD in NTCP-transfected CHO cells; design: expressed in transfected cells; host or cells: CHO cells, geneticin selection, expression induced with sodium butyrate
Experimental: as §1, with “To culture of NTCP-transfected CHO cells, wild-type and human NTCP-transfected CHO cells were cultured from passage 20 to 45 in T-75 flasks (Greiner-Bio-One, Wemmel, Belgium) as prescribed previously (Treiber et al., 2007). The cells” for “The cells”
as §2, with “minutes. For inhibition experiments, compounds were added at double concentration during preincubation.” for “minutes.”, “compound. The inhibitory potential of all compounds of the Spectrum Collection (n = 2000) and the ChemDiv library (n = 556) were determined at equimolar concentrations with 3 µM tauro-nor-THCA-24-DBD.” for “compound.”

[4] = Cheng-Prusoff from IC50, screening hits
[5] = concentration dependent uptake, 15 minutes, NTCP-transfected CHO cells, Michaelis-Menten fit

Compound	Uptake of tauro-nor-THCA-24-DBD (% of control) [1]	concentration-dependent inhibition of tauro-nor-THCA-24-DBD uptake [1]	also measured
COP(=S)(OC)Oc1ccc(Sc2ccc(OP(=S)(OC)OC)cc2)cc1 [Temefos]	38.51 % of control		Ki [1, 4]: 4.16 µM
COc1cc2c3cc1Oc1cc(ccc1O)C[C@@H]1c4c(cc(OC)c(O)c4Oc4ccc(cc4)C[C@@H]3N(C)CC2)CC[N+]1(C)C.Cl.O.O.O.O.O.[Cl-] [Tubocurarine chloride]	49.76 % of control		
Nc1nc(=O)c2[nH]c(=O)cnc2[nH]1 [Xanthopterin]	49.67 % of control		
CCOc1nc2cccc(C(=O)O)c2n1Cc1ccc(-c2ccccc2-c2nnn[nH]2)cc1 [candesartan]			Ki ([1]; values given with ± spread): 50.9 ± 9.9 µM
CC[C@H]1OC(=O)[C@H](C)[C@@H](O[C@H]2C[C@@](C)(OC)[C@@H](O)[C@H](C)O2)[C@H](C)[C@@H](O[C@@H]2O[C@H](C)C[C@H](N(C)C)[C@H]2O)[C@](C)(O)C[C@@H](C)C(=O)[C@H](C)[C@@H](O)[C@]1(C)O [erythromycin]		Only candesartan showed inhibition	
O=C1c2c(O)cc(O)cc2OC(c2ccc(O)cc2)C1c1c(O)cc(O)c2c(=O)cc(-c3ccc(O)c(O)c3)oc12 (stereo not drawn) [fukugetin]		showed concentration-dependent inhibition	
O=c1c(O)c(-c2ccc(O)c(O)c2)oc2cc(O)cc(O)c12 [quercetin]		did not show concentration-dependent inhibition	
Cc1cc2c(C(=O)NC[C@H](C)c3ccccc3)c(O)c(O)cc2c(O)c1-c1c(C)cc2c(C(=O)NC[C@H](C)c3ccccc3)c(O)c(O)cc2c1O [sabutoclax]		showed concentration-dependent inhibition	Ki ([1]; values given with ± spread): 0.522 ± 0.077 µM
O=C(O)c1cc(O)c2c(c1)[C@@H]([C@H]1c3cc(C(=O)O)cc(O)c3C(=O)c3c(O[C@@H]4O[C@H](CO)[C@@H](O)[C@H](O)[C@H]4O)cccc31)c1cccc(O[C@@H]3O[C@H](CO)[C@@H](O)[C@H](O)[C@H]3O)c1C2=O [sennoside B]		did not show concentration-dependent inhibition	
Dehydroavocatin-1 -acetate	44.14 % of control		Ki [1, 4]: 118 µM
Echinocystic acid	24.64 % of control		
Gramicidin			Ki ([2]; 3 µM tauro-nor-THCA-24-DBD, Cheng-Prusoff from IC50, screening hits): 7.59 µM; Uptake of tauro-nor-THCA-24-DBD (% of control) ([2]; compound at equimolar concentration with 3 µM tauro-nor-THCA-24-DBD, triplicate): 37.54 % of control
Oligomycin (A shown)	33.87 % of control		Ki [1, 4]: 0.26 µM
tauro-nor-THCA-24-DBD			Km [3, 5]: 9.2 ± 1.8 µM; Vmax [3, 5]: 322.1 ± 18.3 pmol·mg protein^-1·min^-1; uptake clearance ([3]; corresponds to Vmax and Km): 35.0 µL·mg protein^-1· min^-1
